Values joined by “and” are separate entries in the source; they are usually repeats but may differ in a detail not shown here. Identical values can stand only once.
Assays:
[1] = tested on: four-vessel occlusion model of rats; experiment: Morris water maze Hidden test in four-vessel occlusion model; format: in vivo, rat; conditions: for Hidden test Latency / Hidden test Total distance moved: 4-VO rats; for Hidden test Latency / Hidden test Total distance moved / Time to reach the platform in the Hidden test, in words / Total distance moved in the Hidden test, in words: oral 28 d: arundic acid 30, taltirelin 10, combination 10+3 mg/kg/day; for Hidden test, At the time of grouping Latency: before administration, 1 week after 4-VO; for Time to reach the platform in the Hidden test, in words / Total distance moved in the Hidden test, in words: vs Group 2 control
Experimental: A Morris water maze test was performed by using a circular pool (168 cm in diameter and 40 cm in depth) filled with water, and a platform (10 cm in diameter and 30 cm in height) for escape of rats. In Zone 3, one transparent plastic escape platform (10 cm in diameter and 30 cm in height) was set at a location 40 cm away from the center of the pool, and […] away from the periphery of the pool. The water temperature of the water maze during the experiment was kept at 23° C. (±1.5° C.). A Hidden test was performed at the time of grouping 1 week after four-vessel occlusion, and on the day following the final administration of test drugs. For the Hidden test, the pool was filled with water to a height of 1 cm above the platform (water depth: 31 cm). A Transfer test was performed 3 days after the final administration of test drugs. For the Transfer test, the platform was removed, and the pool was filled with water to a water depth of 31 cm. To enable the rats to memorize surrounding various spatial arrangements, cues, such as posters and photographs, were placed on the wall. The cues always remained at the same locations during the experiment (FIG. 1: a plan view of Morris water maze, and the laboratory layout).
3) One week after restoration of blood flow, 5 trials of the Hidden test according to the Morris water maze test were performed with intervals of 30 minutes, and a cut-off time of 180 seconds. The rats were grouped by using swimming escape latency (time to reach the platform) as an index. After grouping, oral administration of the drug(s) was started. 4) The drug(s) were orally administered for 28 days. 5) On the day following the final administration of the drug, 5 trials of the Hidden Test for assessing spatial memory by using a water maze were performed with intervals of 30 minutes, and a cut-off time of 180 seconds. After 30 minutes, the platform was removed, and a Transfer test was performed with the pool being filled with water to a water depth of 31 cm.
From the starting point in Zone 1, the rats were thrown into a water maze with their heads being directed toward the outside of the water maze. The location of the platform was fixed at a point (corresponding to E in FIG. 1) on the east side in the water maze (corresponding to Zone 3 in FIG. 1). The maximum time of one trial was 180 seconds. When a rat reached the platform within 180 seconds, the rat was allowed to stand on the platform for 15 seconds. […] This rat was expected to learn the location of the platform by using surrounding various spatial arrangements as cues during the 180 seconds of the Hidden test and 15 seconds of being allowed to stand on the platform (Hidden test). In the Hidden test, swimming trajectory to the goal, swimming distance, swimming escape latency (time to reach the platform), and average swimming speed were measured per trial.
The behaviors of the rats in each trial were automatically analyzed with a CCD camera and the SMART (produced by Kyoto L Giken) behavioral analysis program by binarization of the white color of rats' fur and black ash color of the surrounding area.
Significant differences between the groups in spatial memory according to the Morris water maze method were determined by the nonparametric Dunnett's multiple comparison test. 6) After completion of the Morris water maze test, the brain of each rat was perfusion-fixed with 4% paraformaldehyde. The details are as follows.

[2] = tested on: reactive astrocytes; conditions: Patent Literature 2; cited from earlier work
[3] = tested on: hippocampal CA1 neuronal cells; experiment: HE staining of hippocampus CA1, degree of neuronal death; format: in vivo, rat; conditions: HE-stained specimens after 28 days of administration; arundic acid 30, taltirelin 10, combination 10+3 mg/kg/day
Experimental: After completion of the Transfer test, the rats were anesthetized, and the chest cavity was opened to expose the heart. A ventricle was incised to insert a catheter from the heart to the carotid artery, and 50 mL or more of heparinized physiological saline was perfused. Subsequently, 50 mL or more of 4% paraformaldehyde phosphate buffer was perfused. The perfusion procedures were performed with ligation of the main artery. After perfusion-fixation, the brain was removed and immersion-fixed in 4% paraformaldehyde phosphate buffer.
20-μm serial thick frozen sections were prepared from this brain using a cryostat. Alternating serial sections were stained with hematoxylin-eosin. The degree of neuronal death in the stained tissue was semi-quantitatively evaluated under an optical microscope.

[4] = tested on: patients with Alzheimer's disease or patients with cerebrovascular dementia; conditions: reported in literature; cited from earlier work
[5] = tested on: rats with anoxia-induced amnesia; conditions: Non-patent Literature 1; cited from earlier work
[6] = tested on: rats with lesioned bilateral regions including the ventral globus pallidus, substantia innominata, and preoptic area (BFs); conditions: Non-patent Literature 1; cited from earlier work

SMILES	Hidden test Latency ([1]; Mean ± S.E.) [s]	Hidden test Total distance moved ([1]; Mean ± S.E.) [m]	Hidden test, At the time of grouping Latency ([1]; Mean ± S.E.) [s]	Hidden test Latency ([1]; individual rat, 3 mg/kg/day)	Hidden test Total distance moved ([1]; individual rat, 3 mg/kg/day)	Hidden test, At the time of grouping Latency ([1]; individual rat)	Spatial learning capacity and spatial memory capacity in the Morris water maze test, in words ([1]; oral 28 d: arundic acid 30, combination 10+3 mg/kg/day)	Time to reach the platform in the Hidden test, in words [1]	Total distance moved in the Hidden test, in words [1]	GABAA receptor responsiveness [2]	Hippocampal CA1 neuronal cell death / regeneration, in words [3]	Improvement effect compared with TRH [4]	Memory retrieval, one-trial passive avoidance learning test [5]	Memory retrieval, active avoidance learning test [6]
CCCCCC[C@@H](CCC)C(=O)O [Arundic acid, (R)-(−)-2-propyloctanoic acid]	78 ± 5.2	17.4 ± 2.1	102 ± 9.2	73.8 s and 82.2 s and 90.3 s and 66.5 s	13.0 m and 15.8 m and 17.9 m and 22.8 m	112.5 s and 86.9 s and 123.2 s and 87 s	did not affect spatial learning capacity and spatial memory capacity	no improvement in time to reach the platform	not considered to be significantly improved	GABAA receptor responsiveness is recovered	promoted regeneration of hippocampal CA1 neuronal cells			
CN1C(=O)C[C@@H](C(=O)N[C@@H](Cc2c[nH]cn2)C(=O)N2CCC[C@H]2C(N)=O)NC1=O [Taltirelin, N-[(4S)-1-methyl-2,6-dioxohexahydropyrimidine-4-carbonyl]-L-histidyl-L-prolinamide]	83 ± 6.6	16.1 ± 1.6	102 ± 8.3	68.9 s and 88.1 s and 76.4 s and 99.1 s	19.8 m and 15.0 m and 12.3 m and 17.1 m	100.1 s and 97.2 s and 85.5 s and 124.8 s		no improvement in time to reach the platform	not considered to be significantly improved		shedding was observed	higher improvement effect thereon than TRH	improve memory retrieval	improve memory retrieval

From US10828303B2, “Composition comprising combination of TRH analog with arundic acid, and pharmaceutically acceptable salt of arundic acid” (Brivention Pharmaceutical (Shanghai) Inc., priority 2016, dated 2020)
